Where a SMILES comes first, the peptide text is derived from it.

For the assay, the target named is HLA B*0801 (Homo sapiens, UniProt P01889, A93T/A95T/D138N/E176V/E187T/K202T/Q94N/R180D/S35A/V36M/Y33D/Y91F). Put plainly: biochemical. The format is binding.
Turning to `CC[C@H](C)[C@H](NC(=O)[C@@H](NC(=O)[C@H](CO)NC(=O)[C@H](CCCNC(=N)N)NC(=O)[C@H](CCC(=O)O)NC(=O)[C@H](CCCCN)NC(=O)[C@H](CCSC)NC(=O)[C@@H](N)CCSC)[C@@H](C)O)C(=O)N[C@@H](CC(C)C)C(=O)O` [3102.0596] (H-MMKERSTIL-OH), the IC50 was 35 nM.

Regarding `CC[C@H](C)[C@H](NC(=O)[C@H](CCCNC(=N)N)NC(=O)[C@H](CCC(=O)O)NC(=O)[C@H](CCCCN)NC(=O)[C@H](CCSC)NC(=O)[C@@H](N)CC(C)C)C(=O)N[C@@H](CO)C(=O)N[C@@H](CO)C(=O)N[C@@H](CCC(=O)O)C(=O)O` [3102.0597] (H-LMKERISSE-OH), the IC50 is 82 nM.

On to `CC[C@H](C)[C@H](NC(=O)[C@@H]1CCCN1C(=O)[C@H](CCCNC(=N)N)NC(=O)[C@H](CCCNC(=N)N)NC(=O)[C@H](CCC(=O)O)NC(=O)[C@H](CCCCN)NC(=O)[C@H](CCSC)NC(=O)[C@@H](N)[C@@H](C)O)C(=O)N[C@@H](CC(C)C)C(=O)O` [3102.0600] (H-TMKERRPIL-OH), for which inhibition was half-maximal at 1.8 nM (IC50).

`CC(C)C[C@H](NC(=O)CNC(=O)[C@@H](N)CC(N)=O)C(=O)N[C@H](C(=O)N[C@@H](CCCNC(=N)N)C(=O)N[C@@H](CC(C)C)C(=O)N[C@@H](CC(N)=O)C(=O)N[C@@H](C)C(=O)N[C@@H](Cc1ccccc1)C(=O)O)C(C)C` [3102.0603] (H-NGLVRLNAF-OH): the IC50 amounted to 57 nM.

Consider `CSCC[C@H](N)C(=O)N[C@@H](Cc1ccc(O)cc1)C(=O)N[C@@H](CCCCN)C(=O)N[C@@H](CO)C(=O)N[C@@H](CCCNC(=N)N)C(=O)N[C@H](C(=O)N[C@@H](CCC(=O)O)C(=O)N[C@@H](CCCNC(=N)N)C(=O)N[C@H](C(=O)O)C(C)C)C(C)C` [3102.0607] (H-MYKSRVERV-OH), for which half-maximal inhibition (IC50) required 47 nM.

Consider `CC(C)C[C@H](NC(=O)[C@@H]1CCCN1C(=O)[C@H](CCCNC(=N)N)NC(=O)[C@H](Cc1ccccc1)NC(=O)[C@H](CCCCN)NC(=O)[C@H](CCCCN)NC(=O)[C@H](CCCNC(=N)N)NC(=O)[C@H](Cc1ccc(O)cc1)NC(=O)[C@@H](N)Cc1ccccc1)C(=O)O` [3102.0608] (H-FYRKKFRPL-OH), for which the IC50 was determined as 0.088 nM.

For the compound `CC[C@H](C)[C@H](NC(=O)[C@H](CCSC)NC(=O)[C@H](CC(C)C)NC(=O)[C@@H]1CCCN1C(=O)[C@@H](N)CCCNC(=N)N)C(=O)N[C@@H](Cc1ccccc1)C(=O)N[C@@H](CCSC)C(=O)N[C@@H](CO)C(=O)NCC(=O)O` [3102.0609] (H-RPLMIFMSG-OH), the midpoint of inhibition, the IC50, lay at 12 nM.

For `CC(C)C[C@H](NC(=O)[C@H](CCCNC(=N)N)NC(=O)[C@@H](NC(=O)[C@H](Cc1ccccc1)NC(=O)[C@H](Cc1c[nH]cn1)NC(=O)CNC(=O)[C@H](CCCCN)NC(=O)[C@H](CC(N)=O)NC(=O)[C@@H](N)Cc1ccccc1)[C@@H](C)O)C(=O)O` [3102.0610] (H-FNKGHFTRL-OH), the midpoint of inhibition, the IC50, lay at 16 nM.

`CSCC[C@H](NC(=O)[C@@H](NC(=O)[C@H](CS)NC(=O)[C@H](CCCCN)NC(=O)[C@H](CCC(N)=O)NC(=O)[C@H](CC(C)C)NC(=O)[C@H](CCCCN)NC(=O)[C@H](CC(C)C)NC(=O)[C@@H](N)CCSC)C(C)C)C(=O)O` [3102.0611] (H-MLKLQKCVM-OH) displayed an IC50 of 9.3 nM.

`CC[C@H](C)[C@H](NC(=O)[C@H](CO)NC(=O)[C@H](Cc1ccccc1)NC(=O)[C@H](CC(C)C)NC(=O)[C@@H](NC(=O)[C@H](CCCNC(=N)N)NC(=O)[C@H](CC(C)C)NC(=O)[C@@H](N)Cc1c[nH]cn1)C(C)C)C(=O)N[C@@H](Cc1ccccc1)C(=O)O` [3102.0612] (H-HLRVLFSIF-OH) displayed an IC50 of 4.7 nM.

The compound `CC(C)C[C@H](NC(=O)[C@@H]1CCCN1C(=O)[C@@H](N)CO)C(=O)N[C@@H](CO)C(=O)N[C@@H](CCCCN)C(=O)N[C@@H](CS)C(=O)N[C@H](C(=O)N[C@H](C(=O)N[C@H](C(=O)O)C(C)C)C(C)C)C(C)C` [3102.0613] (H-SPLSKCVVV-OH) showed an IC50 of 31 nM.

Turning to `CC[C@H](C)[C@H](NC(=O)[C@H](CO)NC(=O)[C@@H](NC(=O)[C@@H](NC(=O)[C@H](Cc1c[nH]c2ccccc12)NC(=O)[C@H](CCCCN)NC(=O)[C@H](CCSC)NC(=O)[C@@H](N)CCSC)[C@@H](C)CC)[C@@H](C)CC)C(=O)N[C@@H](CC(C)C)C(=O)O` [3102.0616] (H-MMKWIISIL-OH), the IC50 amounted to 1.3 nM.

Compound `CC(C)C[C@H](NC(=O)[C@H](CO)NC(=O)CNC(=O)[C@H](Cc1ccc(O)cc1)NC(=O)[C@H](CCCCN)NC(=O)[C@H](Cc1c[nH]cn1)NC(=O)[C@H](CCCCN)NC(=O)[C@H](CC(C)C)NC(=O)[C@@H](N)Cc1ccccc1)C(=O)O` [3102.0617] (H-FLKHKYGSL-OH) came in with an IC50 of 0.14 nM.

In turn, `CC[C@H](C)[C@H](NC(=O)[C@@H](NC(=O)[C@H](CC(C)C)NC(=O)[C@H](Cc1ccccc1)NC(=O)[C@H](Cc1c[nH]cn1)NC(=O)[C@@H](NC(=O)[C@@H](NC(=O)[C@H](CCCCN)NC(=O)[C@@H](N)CCC(=O)O)[C@@H](C)CC)[C@@H](C)CC)[C@@H](C)O)C(=O)O` [3102.0618] (H-EKIIHFLTI-OH) displayed an IC50 of 5 nM.

Take `CSCC[C@H](NC(=O)[C@H](CS)NC(=O)[C@H](CCCNC(=N)N)NC(=O)[C@H](Cc1ccc(O)cc1)NC(=O)[C@H](CCCCN)NC(=O)[C@H](CCCCN)NC(=O)[C@@H](N)CC(N)=O)C(=O)N[C@@H](C)C(=O)N[C@@H](CC(C)C)C(=O)O` [3102.0619] (H-NKKYRCMAL-OH): the IC50 was found to be 1.9 nM.

For the compound `CC[C@H](C)[C@H](NC(=O)[C@@H](N)CS)C(=O)N[C@H](C(=O)N[C@@H](CC(N)=O)C(=O)N[C@@H](CCCCN)C(=O)N[C@@H](Cc1ccccc1)C(=O)N[C@@H](CCSC)C(=O)N[C@@H](CO)C(=O)N[C@@H](Cc1ccccc1)C(=O)O)C(C)C` [3102.0620] (H-CIVNKFMSF-OH), the IC50 stood at 60 nM.

Take `CC[C@H](C)[C@H](NC(=O)[C@H](CCCNC(=N)N)NC(=O)[C@@H](N)CO)C(=O)N[C@@H](CO)C(=O)N[C@@H](CCCNC(=N)N)C(=O)N[C@@H](Cc1ccccc1)C(=O)N[C@@H](C)C(=O)N[C@@H](CC(N)=O)C(=O)N[C@@H](CC(C)C)C(=O)O` [3102.0622] (H-SRISRFANL-OH): the concentration for half-maximal inhibition (IC50) stood at 20 nM.

`CC[C@H](C)[C@H](NC(=O)[C@@H]1CCCN1C(=O)[C@@H](N)CCC(=O)O)C(=O)N[C@@H](CCCCN)C(=O)N[C@@H](Cc1c[nH]cn1)C(=O)N[C@@H](CCCCN)C(=O)N[C@@H](Cc1ccc(O)cc1)C(=O)N1CCC[C@H]1C(=O)N[C@@H](CC(C)C)C(=O)O` [3102.0624] (H-EPIKHKYPL-OH) returned an IC50 of 1.3 nM.

`C[C@H](NC(=O)[C@H](Cc1ccccc1)NC(=O)[C@H](CO)NC(=O)[C@H](CS)NC(=O)[C@H](CCCNC(=N)N)NC(=O)[C@H](Cc1ccc(O)cc1)NC(=O)[C@H](CCCNC(=N)N)NC(=O)[C@H](CCCNC(=N)N)NC(=O)[C@@H](N)CO)C(=O)O` [3102.0625] (H-SRRYRCSFA-OH) returned an IC50 of 52 nM.

In turn, `CC[C@H](C)[C@H](NC(=O)[C@H](CO)NC(=O)[C@H](Cc1c[nH]cn1)NC(=O)[C@H](Cc1ccc(O)cc1)NC(=O)[C@H](CCCNC(=N)N)NC(=O)[C@@H]1CCCN1C(=O)[C@@H](N)Cc1ccccc1)C(=O)N[C@@H](CCC(=O)O)C(=O)N[C@@H](CC(C)C)C(=O)O` [3102.0626] (H-FPRYHSIEL-OH) yielded an IC50 of 0.49 nM.

Compound `CC[C@H](C)[C@H](NC(=O)[C@H](Cc1ccc(O)cc1)NC(=O)[C@@H](NC(=O)[C@@H](N)CO)C(C)C)C(=O)N[C@@H](CCCNC(=N)N)C(=O)N1CCC[C@H]1C(=O)N[C@H](C(=O)N[C@@H](CO)C(=O)N[C@@H](CC(C)C)C(=O)O)[C@@H](C)O` [3102.0627] (H-SVYIRPTSL-OH) returned an IC50 of 11 nM.

`CC[C@H](C)[C@H](NC(=O)[C@@H](N)CO)C(=O)N[C@@H](CC(N)=O)C(=O)N[C@H](C(=O)N[C@@H](CCCCN)C(=O)N[C@@H](Cc1c[nH]cn1)C(=O)N[C@H](C(=O)N[C@@H](CO)C(=O)N[C@H](C(=O)O)C(C)C)[C@@H](C)O)C(C)C` [3102.0630] (H-SINVKHTSV-OH) returned an IC50 of 13 nM.

In turn, `CC[C@H](C)[C@H](NC(=O)[C@H](CCSC)NC(=O)[C@@H](NC(=O)[C@H](CCCCN)NC(=O)[C@H](CC(C)C)NC(=O)[C@@H](N)CO)[C@@H](C)CC)C(=O)N[C@@H](CCC(N)=O)C(=O)N[C@@H](CO)C(=O)N[C@@H](CCSC)C(=O)O` [3102.0631] (H-SLKIMIQSM-OH) gave an IC50 of 2.5 nM.

Regarding `CC[C@H](C)[C@H](NC(=O)[C@H](Cc1c[nH]cn1)NC(=O)[C@H](Cc1ccccc1)NC(=O)[C@H](CC(C)C)NC(=O)[C@H](CC(N)=O)NC(=O)[C@@H]1CCCN1C(=O)[C@H](CC(C)C)NC(=O)[C@@H](N)CCCNC(=N)N)C(=O)N[C@@H](CC(C)C)C(=O)O` [3102.0632] (H-RLPNLFHIL-OH), the IC50 turned out to be 69 nM.

The compound `CC(C)C[C@H](NC(=O)[C@H](CO)NC(=O)[C@@H]1CCCN1C(=O)[C@H](CCCNC(=N)N)NC(=O)[C@H](CCCCN)NC(=O)[C@H](CO)NC(=O)[C@H](CC(C)C)NC(=O)[C@H](CC(C)C)NC(=O)[C@@H](N)C(C)C)C(=O)O` [3102.0634] (H-VLLSKRPSL-OH) came in with a 50% inhibitory concentration (IC50) of 78 nM.

With `CC[C@H](C)[C@H](NC(=O)[C@H](CCCCN)NC(=O)[C@H](CC(C)C)NC(=O)[C@@H](NC(=O)[C@H](Cc1c[nH]cn1)NC(=O)[C@H](CCCCN)NC(=O)[C@H](CCCNC(=N)N)NC(=O)[C@H](CC(C)C)NC(=O)[C@@H](N)CC(C)C)[C@@H](C)O)C(=O)O` [3102.0636] (H-LLRKHTLKI-OH), the IC50 worked out at 21 nM.

Consider `CC(C)C[C@H](NC(=O)[C@H](CCCNC(=N)N)NC(=O)[C@H](CCCCN)NC(=O)[C@H](CC(N)=O)NC(=O)[C@H](CCCNC(=N)N)NC(=O)[C@H](CC(C)C)NC(=O)[C@H](CCCNC(=N)N)NC(=O)[C@H](CCCNC(=N)N)NC(=O)[C@@H](N)Cc1c[nH]cn1)C(=O)O` [3102.0641] (H-HRRLRNKRL-OH), for which the IC50 came to 28 nM.

As for `CC[C@H](C)[C@H](NC(=O)[C@H](CC(N)=O)NC(=O)[C@H](CCCCN)NC(=O)[C@H](Cc1ccccc1)NC(=O)[C@H](CCCNC(=N)N)NC(=O)[C@H](CC(N)=O)NC(=O)[C@H](CCSC)NC(=O)[C@H](CC(C)C)NC(=O)[C@@H](N)Cc1ccc(O)cc1)C(=O)O` [3102.0642] (H-YLMNRFKNI-OH), the IC50 was found to be 1.3 nM.

These data come from PMC2248166, “Quantitative peptide binding motifs for 19 human and mouse MHC class I molecules derived using positional scanning combinatorial peptide libraries” (Immunome Research, 2008).
